Legend:
smartweed = assay: Test E preemergence herbicide test; assay type: in vivo, Polygonum Persicaria
Source text: Seeds of plant species selected from corn (Zea mays), soybean (Glycine max), velvetleaf (Abutilon theophrasti), lambsquarters (Chenopodium album), wild poinsettia (Euphorbia heterophylla), pigweed, palmer (palmer pigweed, Amaranthus palmeri), waterhemp (common waterhemp, Amaranthus rudis), surinam grass (Brachiaria decumbens), crabgrass, large (large crabgrass, Digitaria sanguinalis), crabgrass, Brazil (Brazilian crabgrass, Digitaria horizontalis), panicum, fall (fall panicum, Panicum dichotomiflorum), foxtail, giant (giant foxtail, Setaria faberii), foxtail, green (green foxtail, Setaria viridis), goosegrass (Eleusine indica), johnsongrass (Sorghum halepense), ragweed (common ragweed, Ambrosia elatior), barnyardgrass (Echinochloa crus-galli), sandbur (southern sandbur, Cenchrus echinatus), arrowleaf […] rhombifolia), ryegrass, Italian (Italian ryegrass, Lolium multiflorum), dayflower, VA (Virginia dayflower, Commelina virginica), field bindweed (Convolvulus arvensis), morningglory (Ipomoea coccinea), nightshade (eastern black nightshade, Solanum ptycanthum), kochia (Kochia scoparia), nutsedge, yellow (yellow nutsedge, Cyperus esculentus), cocklebur (common cocklebur, Xanthium strumarium), smartweed (ladysthumb smartweed, Polygonum Persicaria) and beggarticks (hairy beggarticks, Bidens pilosa), were planted into a silt loam soil and treated preemergence with test chemicals formulated in a non-phytotoxic solvent mixture which included a surfactant. Treated plants and controls were maintained in a greenhouse for 21 days, after which time all species were compared to controls and visually evaluated. Plant response ratings, summarized in Table E, are based on a scale of 0 to 100 where 0 is no effect and 100 is complete control. A dash (-) response means no test result.

corn (ZEAMD) = assay: Test H preemergence mixture test (Colby); assay type: in vivo, Zea mays; conditions: for Plant response rating, Obsd., ZEAMD: 21 d after treatment, scale 0 to 100; for ZEAMD Obsd.: applied alone, 21 d, mean of three replicates, scale 0-100
[1] = system: small-flower umbrella sedge (CYPDI); assay: Test G paddy mixture test (Colby); assay type: in vivo, Cyperus difformis; conditions: applied alone, 14 d; for CYPDI Obsd.: scale 0-100; for CYPDI Obsd. plant response rating (scale 0 to 100): flooded
Procedure, shortened: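 Weeds sown in Tama soil tubs; barnyardgrass and transplanted japonica rice grown in plug flats. Treated at 2.0–2.5 leaf stage; visual rating 0–100 versus controls after 14 d in greenhouse. Expected mixture effect calculated with Colby's equation; rates in g a.i. per area.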

barnyardgrass (ECHCG) = assay: Test G paddy mixture test (Colby); assay type: in vivo, Echinochloa crus-galli; conditions: applied alone, 14 d; for ECHCG Obsd.: scale 0-100; for ECHCG Obsd. plant response rating (scale 0 to 100): flooded
Description: (§1) Seeds of small-flower umbrella […], Cyperus difformis) and […], Heteranthera limosa) were sown on the soil surface in two separate quadrants of 11-cm (4-inch) tubs filled with steam pasteurized Tama soil. Simultaneously, plantings of […], Echinochloa crus-galli) and transplanted japonica rice (ORYSA, Oryza sativa) were established in separate “plug” flats. […] Herbicide application timing was targeted at the 2.0 to 2.5 leaf stage and the plants were treated with test chemicals formulated in a non-phytotoxic solvent. Treated plants and controls were maintained in a greenhouse for 14 d, after which time all species were compared to controls and visually evaluated. Plant response ratings are summarized in Tables G1 through G12, and are based on a scale of 0 to 100 where 0 is no effect and 100 is complete control. A dash (-) response means no test result. Colby's Equation was used to determine the herbicidal effects expected from the mixtures. Colby's Equation (Colby, S. R. “Calculating Synergistic and Antagonistic Responses of Herbicide Combinations,” Weeds, 15(1), pp 20-22 (1967)) calculates the expected additive effect of herbicidal mixtures and for two active ingredients is of the form: Pa+b=Pa+Pb-(PaPb/100) where • Pa+b is the percentage effect of the mixture expected from additive contribution of the individual components: • Pa is the observed percentage effect of the first active ingredient at the same use rate as in the mixture, and • Pb is the observed percentage effect of the second active ingredient at the same use rate as in the mixture. In the following Tables, rates are shown in grams of active ingredient per […]); “Obsd.” is the observed effect. “Exp.” is the expected effect calculated from Colby's Equation.

[2] = system: transplanted japonica rice (ORYSA); assay: Test G paddy mixture test (Colby); assay type: in vivo, Oryza sativa; conditions: applied alone, 14 d; for ORYSA Obsd.: scale 0-100; for ORYSA Obsd. plant response rating (scale 0 to 100): flooded
Description: as §1

ducksalad (HETLI) = assay: Test G paddy mixture test (Colby); assay type: in vivo, Heteranthera limosa; conditions: applied alone, 14 d; for HETLI Obsd.: scale 0-100; for HETLI Obsd. plant response rating (scale 0 to 100): flooded
Description: as §1

## O=C1NCC(c2ccc(Cl)c(Cl)c2)C1C(=O)Nc1ccccc1F (racemic) [Compound 14]
smartweed; 125 g ai/ha
  Plant response rating, Smartweed: 0

## O=C1NCC(c2ccc(C(F)(F)F)cc2)C1C(=O)Nc1cccc(F)c1F (stereo not shown) [Compound 80, N-(2,3-difluorophenyl)-2-oxo-4-[4-(trifluoromethyl)phenyl]-3-pyrrolidinecarboxamide]
Corn (ZEAMD); Cmpd 80 alone 62 g a.i./ha
  Plant response rating, Obsd., ZEAMD: 17
Corn (ZEAMD); Cmpd 80 alone 125 g a.i./ha
  Plant response rating, Obsd., ZEAMD: 13
Corn (ZEAMD); 62 g a.i./ha
  ZEAMD Obsd.: 17
Corn (ZEAMD); 125 g a.i./ha
  ZEAMD Obsd.: 13
smartweed; 16 g ai/ha
  Plant response rating, Smartweed: 0
smartweed; 31 g ai/ha
  Plant response rating, Smartweed: 0
smartweed; 62 g ai/ha
  Plant response rating, Smartweed: 20
smartweed; 250 g ai/ha
  Plant response rating, Smartweed: 40

## O=C1NC[C@H](c2cccc(C(F)(F)F)c2)[C@H]1C(=O)Nc1ccccc1F [Compound 204, (3R,4S)—N-(2-fluorophenyl)-2-oxo-4-[3-(trifluoromethyl)phenyl]-3-pyrrolidinecarboxamide]
[1]; 125 g a.i./ha
  CYPDI Obsd.: 0
  CYPDI Obsd. plant response rating (scale 0 to 100): 0
[1]; 500 g a.i./ha
  CYPDI Obsd.: 0
  CYPDI Obsd. plant response rating (scale 0 to 100): 0
Barnyardgrass (ECHCG); 125 g a.i./ha
  ECHCG Obsd.: 65
  ECHCG Obsd. plant response rating (scale 0 to 100): 65
Barnyardgrass (ECHCG); 500 g a.i./ha
  ECHCG Obsd.: 90
  ECHCG Obsd. plant response rating (scale 0 to 100): 90
[2]; 125 g a.i./ha
  ORYSA Obsd.: 0
  ORYSA Obsd. plant response rating (scale 0 to 100): 0
[2]; 500 g a.i./ha
  ORYSA Obsd.: 0
  ORYSA Obsd. plant response rating (scale 0 to 100): 0
Ducksalad (HETLI); 125 g a.i./ha
  HETLI Obsd.: 100
  HETLI Obsd. plant response rating (scale 0 to 100): 100
Ducksalad (HETLI); 500 g a.i./ha
  HETLI Obsd.: 100
  HETLI Obsd. plant response rating (scale 0 to 100): 100

From US10294202B2, “Pyrrolidinones as herbicides” (FMC Corporation, priority 2013, dated 2019)
